Data: ChEMBL document CHEMBL6114969, “Ultra-short lipopeptides containing d-amino acid exhibiting excellent stability and antibacterial activity against gram-positive bacteria” (Eur J Med Chem, 2025)
In brackets after ≈: the same amount, converted by molar mass. Activity calls are given as the source filed them. No cut-off for these calls is given here.

Key:
[1] = Retention time of compound by RP-HPLC analysis; format: physicochemical
Staphylococcus aureus [2] = assay: Antibacterial activity against Staphylococcus aureus ATCC 25923 incubated for 18 to 24 hrs by broth microdilution method; format: functional; conditions: time 18-24 hrs
Staphylococcus aureus [3] = assay: Antibacterial activity against Staphylococcus aureus ATCC 29213 incubated for 18 to 24 hrs by broth microdilution method; format: functional; conditions: time 18-24 hrs
Staphylococcus aureus [4] = assay: Antibacterial activity against methicillin-resistant Staphylococcus aureus ATCC 33591 incubated for 18 to 24 hrs by broth microdilution method; format: functional; conditions: time 18-24 hrs
[5] = tested on: Staphylococcus epidermidis; assay: Antibacterial activity against Staphylococcus epidermidis ATCC 12228 incubated for 18 to 24 hrs by broth microdilution method; format: functional; conditions: time 18-24 hrs
Enterococcus faecalis = assay: Antibacterial activity against Enterococcus faecalis ATCC 29212 incubated for 18 to 24 hrs by broth microdilution method; format: functional; conditions: time 18-24 hrs
[6] = Hemolytic activity in mouse Red blood cells incubated for 1 hr by absorbance based analysis; format: toxicity, cell-based; conditions: erythrocyte
Staphylococcus aureus [7] = assay: Antibacterial activity against methicillin-resistant Staphylococcus aureus ATCC 33591 incubated for 18 to 24 hrs in presence of 0.5 mg/ml of trypsin by broth microdilution method; format: functional; conditions: time 18-24 hrs
Staphylococcus aureus [8] = assay: Antibacterial activity against methicillin-resistant Staphylococcus aureus ATCC 33591 incubated for 18 to 24 hrs in presence of 1 mg/ml of trypsin by broth microdilution method; format: functional; conditions: time 18-24 hrs
Staphylococcus aureus [9] = assay: Antibacterial activity against methicillin-resistant Staphylococcus aureus ATCC 33591 incubated for 18 to 24 hrs in presence of 2 mg/ml of trypsin by broth microdilution method; format: functional; conditions: time 18-24 hrs
Staphylococcus aureus [10] = assay: Antibacterial activity against methicillin-resistant Staphylococcus aureus ATCC 33591 incubated for 18 to 24 hrs in presence of 0.5 mg/ml of chymotrypsin by broth microdilution method; format: functional; conditions: time 18-24 hrs
Staphylococcus aureus [11] = assay: Antibacterial activity against methicillin-resistant Staphylococcus aureus ATCC 33591 incubated for 18 to 24 hrs in presence of 1 mg/ml of chymotrypsin by broth microdilution method; format: functional; conditions: time 18-24 hrs
Staphylococcus aureus [12] = assay: Antibacterial activity against methicillin-resistant Staphylococcus aureus ATCC 33591 incubated for 18 to 24 hrs in presence of 2 mg/ml of chymotrypsin by broth microdilution method; format: functional; conditions: time 18-24 hrs
Staphylococcus aureus [13] = assay: Antibacterial activity against methicillin-resistant Staphylococcus aureus ATCC 33591 incubated for 18 to 24 hrs in presence of 0.5 mg/ml of pepsin by broth microdilution method; format: functional; conditions: time 18-24 hrs
Staphylococcus aureus [14] = assay: Antibacterial activity against methicillin-resistant Staphylococcus aureus ATCC 33591 incubated for 18 to 24 hrs in presence of 1 mg/ml of pepsin by broth microdilution method; format: functional; conditions: time 18-24 hrs
Staphylococcus aureus [15] = assay: Antibacterial activity against methicillin-resistant Staphylococcus aureus ATCC 33591 incubated for 18 to 24 hrs in presence of 2 mg/ml of pepsin by broth microdilution method; format: functional; conditions: time 18-24 hrs
Staphylococcus aureus [16] = assay: Antibacterial activity against methicillin-resistant Staphylococcus aureus ATCC 33591 assessed as fold change in MIC incubated for 18 to 24 hrs in presence of MgCl2 by broth microdilution method; format: functional; conditions: time 18-24 hrs
Staphylococcus aureus [17] = assay: Antibacterial activity against methicillin-resistant Staphylococcus aureus ATCC 33591 assessed as fold change in MIC incubated for 18 to 24 hrs in presence of NaCl by broth microdilution method; format: functional; conditions: time 18-24 hrs
Staphylococcus aureus [18] = assay: Antibacterial activity against methicillin-resistant Staphylococcus aureus ATCC 33591 assessed as fold change in MIC incubated for 18 to 24 hrs in presence of 10 percent FBS by broth microdilution method; format: functional; conditions: time 18-24 hrs
Staphylococcus aureus [19] = assay: Antibacterial activity against methicillin-resistant Staphylococcus aureus ATCC 33591 assessed as fold change in MIC incubated for 18 to 24 hrs in presence of 10 percent mouse serum by broth microdilution method; format: functional; conditions: time 18-24 hrs
Staphylococcus aureus [20] = assay: Induction of drug resistance in Staphylococcus aureus ATCC 25923 at sub-MIC measured after 2 passages; format: functional, organism-based
Staphylococcus aureus [21] = assay: Antibacterial activity against drug-resistant Staphylococcus aureus ATCC 25923 incubated for 18 to 24 hrs; format: functional; conditions: time 18-24 hrs
Staphylococcus aureus [22] = assay: Antibacterial activity against ciprofloxacin-resistant Staphylococcus aureus ATCC 25923 incubated for 18 to 24 hrs; format: functional; conditions: time 18-24 hrs
Staphylococcus aureus [23] = assay: Antibacterial activity against polymyxin B-resistant Staphylococcus aureus ATCC 25923 incubated for 18 to 24 hrs; format: functional; conditions: time 18-24 hrs
Staphylococcus aureus [24] = assay: Antibacterial activity against gentamicin-resistant Staphylococcus aureus ATCC 25923 incubated for 18 to 24 hrs; format: functional; conditions: time 18-24 hrs
Staphylococcus aureus [25] = assay: Antibacterial activity against drug-resistant methicillin-resistant Staphylococcus aureus ATCC 33591 incubated for 18 to 24 hrs; format: functional; conditions: time 18-24 hrs
Staphylococcus aureus [26] = assay: Antibacterial activity against ciprofloxacin-resistant methicillin-resistant Staphylococcus aureus ATCC 33591 incubated for 18 to 24 hrs; format: functional; conditions: time 18-24 hrs
Staphylococcus aureus [27] = assay: Antibacterial activity against polymyxin B-resistant methicillin-resistant Staphylococcus aureus ATCC 33591 incubated for 18 to 24 hrs; format: functional; conditions: time 18-24 hrs
Staphylococcus aureus [28] = assay: Antibacterial activity against gentamicin-resistant methicillin-resistant Staphylococcus aureus ATCC 33591 incubated for 18 to 24 hrs; format: functional; conditions: time 18-24 hrs

SMILES	Retention_time [1]	MIC (Staphylococcus aureus [2])	MIC (Staphylococcus aureus [3])	MIC (Staphylococcus aureus [4])	MIC [5]	MIC (Enterococcus faecalis)	HC10 [6]	MIC (Staphylococcus aureus [7])	MIC (Staphylococcus aureus [8])	MIC (Staphylococcus aureus [9])	MIC (Staphylococcus aureus [10])	MIC (Staphylococcus aureus [11])	MIC (Staphylococcus aureus [12])	MIC (Staphylococcus aureus [13])	MIC (Staphylococcus aureus [14])	MIC (Staphylococcus aureus [15])	fold change (FC) (Staphylococcus aureus [16])	fold change (FC) (Staphylococcus aureus [17])	fold change (FC) (Staphylococcus aureus [18])	fold change (FC) (Staphylococcus aureus [19])	other results
CCCCCCCCCCCC(=O)N[C@@H](CCCNC(=N)N)C(=O)N[C@H](CCCNC(=N)N)C(=O)N[C@@H](Cc1c[nH]c2ccccc12)C(=O)O	18.997 min	4 µM (≈ 2.8 µg/mL)	4 µM (≈ 2.8 µg/mL)	4 µM (≈ 2.8 µg/mL)	2 µM (≈ 1.4 µg/mL)	8 µM (≈ 5.59 µg/mL)	128 µM	16 µM	32 µM	32 µM	16 µM	32 µM	32 µM	64 µM	64 µM	64 µM	<3	<3	8	4	
CCCCCCCCCCCC(=O)N[C@H](CCCNC(=N)N)C(=O)N[C@@H](CCCNC(=N)N)C(=O)N[C@@H](Cc1c[nH]c2ccccc12)C(=O)O	19.259 min	4 µM (≈ 2.8 µg/mL)	4 µM (≈ 2.8 µg/mL)	4 µM (≈ 2.8 µg/mL)	2 µM (≈ 1.4 µg/mL)	8 µM (≈ 5.59 µg/mL)	64 µM	64 µM	64 µM	128 µM	16 µM	32 µM	128 µM	8 µM	16 µM	32 µM	<3	<3	8	4	
CCCCCCCCCCCC(=O)N[C@@H](CCCNC(=N)N)C(=O)N[C@H](CCCNC(=N)N)C(=O)N[C@H](Cc1c[nH]c2ccccc12)C(=O)O	19.303 min	4 µM (≈ 2.8 µg/mL)	4 µM (≈ 2.8 µg/mL)	4 µM (≈ 2.8 µg/mL)	2 µM (≈ 1.4 µg/mL)	16 µM (≈ 11.2 µg/mL)	64 µM	128 µM	> 128 µM	> 128 µM	8 µM	8 µM	32 µM	4 µM	8 µM	16 µM	<3	<3	8	4	
CCCCCCCCCCCC(=O)N[C@H](CCCNC(=N)N)C(=O)N[C@@H](CCCNC(=N)N)C(=O)N[C@H](Cc1c[nH]c2ccccc12)C(=O)O	19.092 min	4 µM (≈ 2.8 µg/mL)	4 µM (≈ 2.8 µg/mL)	4 µM (≈ 2.8 µg/mL)	2 µM (≈ 1.4 µg/mL)	16 µM (≈ 11.2 µg/mL)	128 µM	8 µM	16 µM	32 µM	8 µM	8 µM	8 µM	4 µM	8 µM	8 µM	<3	<3	8	4	
CN[C@H](CC(C)C)C(=O)N[C@H]1C(=O)N[C@@H](CC(N)=O)C(=O)N[C@H]2C(=O)N[C@H]3C(=O)N[C@H](C(=O)N[C@H](C(=O)O)c4cc(O)cc(O)c4-c4cc3ccc4O)[C@H](O)c3ccc(c(Cl)c3)Oc3cc2cc(c3O[C@@H]2O[C@H](CO)[C@@H](O)[C@H](O)[C@H]2O[C@H]2C[C@](C)(N)[C@H](O)[C@H](C)O2)Oc2ccc(cc2Cl)[C@H]1O [VANCOMYCIN]		≤ 0.5 µM	≤ 0.5 µM	≤ 0.5 µM	1 µM (≈ 1.45 µg/mL)	2 µM (≈ 2.9 µg/mL)															
CCCCCCCCCCCC(=O)N[C@H](CCCNC(=N)N)C(=O)N[C@H](CCCNC(=N)N)C(=O)N[C@@H](Cc1c[nH]c2ccccc12)C(=O)O	18.527 min	4 µM (≈ 2.8 µg/mL)	4 µM (≈ 2.8 µg/mL)	4 µM (≈ 2.8 µg/mL)	2 µM (≈ 1.4 µg/mL)	8 µM (≈ 5.59 µg/mL)	128 µM	32 µM	32 µM	64 µM	32 µM	64 µM	64 µM	4 µM	8 µM	32 µM	<3	<3	8	8	
CCCCCCCCCCCC(=O)N[C@@H](CCCNC(=N)N)C(=O)N[C@@H](CCCNC(=N)N)C(=O)N[C@H](Cc1c[nH]c2ccccc12)C(=O)O	18.476 min	4 µM (≈ 2.8 µg/mL)	4 µM (≈ 2.8 µg/mL)	4 µM (≈ 2.8 µg/mL)	2 µM (≈ 1.4 µg/mL)	16 µM (≈ 11.2 µg/mL)	128 µM	> 128 µM	> 128 µM	> 128 µM	> 128 µM	> 128 µM	> 128 µM	16 µM	128 µM	128 µM	<3	<3	8	4	
O=C(O)c1cn(C2CC2)c2cc(N3CCNCC3)c(F)cc2c1=O [CIPROFLOXACIN]		1 µM (≈ 0.331 µg/mL)	1 µM (≈ 0.331 µg/mL)	256 µM (≈ 84.8 µg/mL)	≤ 0.5 µM	2 µM (≈ 0.663 µg/mL)															Activity (Staphylococcus aureus [20]): Active; MIC (Staphylococcus aureus [21]): > 128 µM; MIC (Staphylococcus aureus [22]): 8.19 mM (≈ 2710 µg/mL); MIC (Staphylococcus aureus [23]): > 128 µM; MIC (Staphylococcus aureus [24]): 128 µM (≈ 42.4 µg/mL); MIC (Staphylococcus aureus [25]): > 128 µM; MIC (Staphylococcus aureus [26]): 8.19 mM (≈ 2710 µg/mL); MIC (Staphylococcus aureus [27]): > 128 µM; MIC (Staphylococcus aureus [28]): 128 µM (≈ 42.4 µg/mL)
